System: 454973-116-R2-J3-PDC spheroids, percent test/control viability
Assay: Anticancer human tumor 454973-116-R2-J3-PDC patient-derived pancreatic carcinoma cell line growth inhibition [CLK]
Details: spheroids with HUVEC and MSC; for IC50: curve of first compound; for viability, T/C: stronger effect = lower value
Summary of the method: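 Patient-derived tumor cells grown as complex spheroids with HUVEC endothelial cells and mesenchymal stem cells, treated with drug combinations. Concentrations descend in half-log steps from near clinical Cmax, or from 10 microM if Cmax unknown.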

[1] = second compound 0.0316 µM, first compound 0.0316 µM
[2] = second compound 0.0316 µM, first compound 0.1 µM
[3] = second compound 0.0316 µM, first compound 0.316 µM
[4] = second compound 0.0316 µM, first compound 1 µM
[5] = second compound 0.1 µM, first compound 0.0316 µM
[6] = second compound 0.1 µM, first compound 0.1 µM
[7] = second compound 0.1 µM, first compound 0.316 µM
[8] = second compound 0.1 µM, first compound 1 µM
[9] = second compound 0.316 µM, first compound 0.0316 µM
[10] = second compound 0.316 µM, first compound 0.1 µM
[11] = second compound 0.316 µM, first compound 0.316 µM
[12] = second compound 0.316 µM, first compound 1 µM
[13] = second compound 1 µM, first compound 0.0316 µM
[14] = second compound 1 µM, first compound 0.1 µM
[15] = second compound 1 µM, first compound 0.316 µM
[16] = second compound 1 µM, first compound 1 µM
[17] = second compound 3.16 µM, first compound 0.0316 µM
[18] = second compound 3.16 µM, first compound 0.1 µM
[19] = second compound 3.16 µM, first compound 0.316 µM
[20] = second compound 3.16 µM, first compound 1 µM
[21] = second compound 10 µM, first compound 0.0316 µM
[22] = second compound 10 µM, first compound 0.1 µM
[23] = second compound 10 µM, first compound 0.316 µM
[24] = second compound 10 µM, first compound 1 µM
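Also: spheroids exposed to compounds for 7 days before readout.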

For CC(Nc1ccc2c(c1)OCCn1cc(N3C(=O)OCC3C(F)F)nc1-2)C(N)=O (centres undefined) + CN1CCN(c2cc(C(=O)Nc3cc4cc(-c5cnn(C)c5)ccc4cn3)ccn2)CC1, the IC50 (second compound 0.0316 µM) was > 10 µM, the IC50 (second compound 0.1 µM) was 0.332 µM and the IC50 (second compound 0.316 µM) was < 0.0316 µM. The IC50 (second compound 1 µM) was < 0.0316 µM, the IC50 (second compound 3.16 µM) was < 0.0316 µM and the IC50 (second compound 10 µM) was < 0.0316 µM. The viability, T/C [1] was 91.9%, the viability, T/C [2] was 82.3% and the viability, T/C [3] was 81.4%. The viability, T/C [4] was 68.3%, the viability, T/C (second compound 0.0316 µM, first compound 3.16 µM) was 64.8% and the viability, T/C (second compound 0.0316 µM, first compound 10 µM) was 53.1%. It also gave a viability, T/C [5] of 67.4%, a viability, T/C [6] of 60.2% and a viability, T/C [7] of 49.9%. The viability, T/C [8] was 41.8%, the viability, T/C (second compound 0.1 µM, first compound 3.16 µM) was 34% and the viability, T/C (second compound 0.1 µM, first compound 10 µM) was 30.2%. For the same molecule, the viability, T/C [9] was 1.28%, the viability, T/C [10] was 1.34% and the viability, T/C [11] was 0.74%. The viability, T/C [12] was 0.59%, the viability, T/C (second compound 0.316 µM, first compound 3.16 µM) was 1.78% and the viability, T/C (second compound 0.316 µM, first compound 10 µM) was 0.43%. The viability, T/C [13] was 0.08%, the viability, T/C [14] was 0.11% and the viability, T/C [15] was 3.02%. The viability, T/C [16] was 0.1%, the viability, T/C (second compound 1 µM, first compound 3.16 µM) was 0.88% and the viability, T/C (second compound 1 µM, first compound 10 µM) was 0.07%. The viability, T/C [17] was 0.11%, the viability, T/C [18] was 0.14% and the viability, T/C [19] was 0.15%. The viability, T/C [20] was 0.13%, the viability, T/C (second compound 3.16 µM, first compound 3.16 µM) was 0.13% and the viability, T/C (second compound 3.16 µM, first compound 10 µM) was 0.38%. For the same molecule, the viability, T/C [21] was 3.01%, the viability, T/C [22] was 0.2% and the viability, T/C [23] was 0.2%. For the same molecule, the viability, T/C [24] was 0.22%, the viability, T/C (second compound 10 µM, first compound 3.16 µM) was 0.21% and the viability, T/C (second compound 10 µM, first compound 10 µM) was 0.23%.
With CCN1CCN(Cc2ccc(Nc3ncc(F)c(-c4cc(F)c5nc(C)n(C(C)C)c5c4)n3)nc2)CC1 + CN1CCN(c2cc(C(=O)Nc3cc4cc(-c5cnn(C)c5)ccc4cn3)ccn2)CC1 the IC50 (second compound 0.0316 µM) was > 1 µM, the IC50 (second compound 0.1 µM) was > 1 µM and the IC50 (second compound 0.316 µM) was < 0.00316 µM. For the same molecule, the IC50 (second compound 1 µM) was < 0.00316 µM, the IC50 (second compound 3.16 µM) was < 0.00316 µM and the IC50 (second compound 10 µM) was < 0.00316 µM. The viability, T/C (second compound 0.0316 µM, first compound 0.00316 µM) was 90.9%, the viability, T/C (second compound 0.0316 µM, first compound 0.01 µM) was 93.5% and the viability, T/C [1] was 78.7%. It also gave a viability, T/C [2] of 79.1%, a viability, T/C [3] of 71% and a viability, T/C [4] of 62.2%. For the same molecule, the viability, T/C (second compound 0.1 µM, first compound 0.00316 µM) was 77.8%, the viability, T/C (second compound 0.1 µM, first compound 0.01 µM) was 78.5% and the viability, T/C [5] was 70.6%. It also gave a viability, T/C [6] of 81.2%, a viability, T/C [7] of 63.5% and a viability, T/C [8] of 66.9%. It also gave a viability, T/C (second compound 0.316 µM, first compound 0.00316 µM) of 2.22%, a viability, T/C (second compound 0.316 µM, first compound 0.01 µM) of 3.67% and a viability, T/C [9] of 6.55%. It also gave a viability, T/C [10] of 7.25%, a viability, T/C [11] of 24.6% and a viability, T/C [12] of 13.8%. It also gave a viability, T/C (second compound 1 µM, first compound 0.00316 µM) of 0.14%, a viability, T/C (second compound 1 µM, first compound 0.01 µM) of 1.49% and a viability, T/C [13] of 2.77%. The viability, T/C [14] was 0.19%, the viability, T/C [15] was 0.21% and the viability, T/C [16] was 0.24%. For the same molecule, the viability, T/C (second compound 3.16 µM, first compound 0.00316 µM) was 0.15%, the viability, T/C (second compound 3.16 µM, first compound 0.01 µM) was 0.31% and the viability, T/C [17] was 0.58%. For the same molecule, the viability, T/C [18] was 0.16%, the viability, T/C [19] was 0.2% and the viability, T/C [20] was 0.28%. It also gave a viability, T/C (second compound 10 µM, first compound 0.00316 µM) of 0.13%, a viability, T/C (second compound 10 µM, first compound 0.01 µM) of 0.22% and a viability, T/C [21] of 0.24%. The viability, T/C [22] was 0.42%, the viability, T/C [23] was 0.21% and the viability, T/C [24] was 3.78%.
